Values quoted from earlier work as cited in US20080139661A1, “Fragranted moistening fluids that destroy and/or inhibit the growth of biological organisms while minimizing a tacky build up” (Pitney Bowes Incorporated, priority 2006, published 2008).

Details: at 20° C., typical value

Q: Which surface tension does the source give for `O` [Water] here?
A: Its surface tension is “around 72 dynes/cm”.
